Tests used:
BV2 microglia = experiment: Nitric oxide production (nitrite, Griess reaction) by LPS plus IFNγ activated BV2 microglia; format: cell-based, mouse; settings: LPS 100 ng/mL + IFNγ 50 pg/mL, 24 h
Experimental: BV2 cells are a murine microglial-derived cell line widely used as in vitro model for the study of compounds that could modulate microglial mediated neuronal damage. When stimulated, BV2 microglia releases neurotoxic and neuroinflammatory factors such as tumor necrosis factor alpha (TNFα), interleukin 6 (IL6) or nitric oxide (NO).
The mouse microglial cell line BV-2 was purchased at the Istituto Nazionale per la Ricerca sul Cancro (1ST, Genova, Italy). BV-2 cells were cultured in RPMI-1640 medium (Gibco Invitrogen, Paisley, Scotland, UK) supplemented with 10% FBS and 0.1% penicillin-streptomycin (both from Gibco Invitrogen). Cells were maintained at 37° C. in a 5% CO2 humidified atmosphere. BV-2 microglial cells were seeded at a density of 5×10^4 cells/mL. The following day, cells were treated with the compound of formula (I), the compound of formula (II) or the combination of both compounds, 30 minutes before stimulation with LPS 100 ng/mL and gamma-interferon (IFNγ) 50 pg/mL (both from Sigma-Aldrich, St. Louis, Mo., USA). Control wells contained the same final concentration of vehicle as the compound-containing wells. Culture supernatants were collected 24 h after LPS/IFNγ stimulation and stored at −20° C. until assayed for nitrites analysis.
Nitrite levels, direct indicators of NO production, were quantified by the Griess reaction. Briefly, 50 μL of culture medium was mixed in a 96-well plate with 25 μL of Griess reagent A (sulfanilamide, Sigma-Aldrich) and 25 μL of reagent B (N-1-naphthyl ethylene-diamine, Sigma-Aldrich). After color development (10 min at 23 to 25° C.), samples were measured at 540 nm on a microplate reader (BioTek ELX800, BioTek Instruments Inc., Vermont, USA). Nitrite concentration was determined from a sodium nitrite standard curve. Values of at least three independent wells from three experiments were calculated.
The compound of formula (I) was oleanolic acid (4.44 mg/L), the compound of formula (II) was verbascoside (3.12 mg/L), and the combination of the compound of formula (I) and the compound of formula (II) comprised oleanolic acid (4.44 mg/L) and verbascoside (3.12 mg/L). Stock solutions of the compounds (50 mM) were prepared in dimethyl sulfoxide (DMSO, Sigma-Aldrich). Solutions for cell treatment were prepared by diluting stock solutions in culture media immediately before being added to the cells (DMSO concentration: 0.5%). Controls contained the same final concentration of vehicle as the compound-containing wells. Three independent experiments were carried out.
The procedures for this assay were as described above in Example 2, wherein the compound of formula (I) was maslinic acid (13.20 mg/L), the compound of formula (II) was verbascoside (3.12 mg/L), and the and the combination of the compound of formula (I) and the compound of formula (II) comprised maslinic acid (13.20 mg/L) and verbascoside (3.12 mg/L). Stock solutions of the compounds (50 mM) were prepared in dimethyl sulfoxide (DMSO, Sigma-Aldrich). Solutions for cell treatment were prepared by diluting stock solutions in culture media immediately before being added to the cells (DMSO concentration: 0.5%). Controls contained the same final concentration of vehicle as the compound-containing wells. Three independent experiments were performed.

NSC34 motor neurons = experiment: NSC34 motor neuron viability (MTT) after hydrogen peroxide insult; format: cell-based, murine; settings: H2O2 0.2 mM 30 min, MTT after 24 h
Text: NSC34 murine spinal cord motor neuron derived cell line was used for this assay. This neuronal cell line is a classical in vitro platform validated for the study of neuroprotective agents. They share a lot of common physiological features with spinal cord neurons such as glutamate sensibility, acetyl choline secretion upon stimulation, functional neurites or characteristic neuronal sensibility and protection mechanisms against neurotoxic agents. Motoneuronal NSC-34 cells (Cedarlane, Burlington, Ontario, Canada) were cultured at 37° C. and 5% CO2 in Dulbecco's modified Eagle's medium (DMEM) supplemented with 10% fetal bovine serum (FBS), 1% penicillin/streptomycin and 0.04 mM L-glutamine. All reagents were purchased at Gibco-Invitrogen. NSC34 cells were seeded at low density (30000 cel/mL) in appropriate tissue culture vessels, 24-well plates for toxicity assays. In the experiments, cells were pretreated for 2 h with the compound of formula (I) (oleanolic acid, 4.44 mg/L), the compound of formula (II) (hydroxytyrosol, 1.54 mg/L) or the combination of the compound of formula (I) (oleanolic acid, 4.44 mg/L) and the compound of formula (II) (hydroxytyrosol, 1.54 mg/L). Stock solutions of the compounds (50 mM) were prepared in dimethylsulfoxide (DMSO, Sigma-Aldrich). Solutions for cell treatment were prepared by diluting stock solutions in culture media immediately before being added to the cells (DMSO concentration: 0.5%). Controls contained the same final concentration of vehicle as the compound-containing wells. Hydrogen peroxide (H2O2) stock was a 30% solution in water (Aldrich). The medium was removed and replaced with a suitable volume of fresh DMEM plus FBS (Gibco). Small hydrogen peroxide aliquots were then added to a final concentration of 0.2 mM. Cells were then exposed for 30 min at 37° C. After this time the medium was removed and replaced with fresh one. The compounds were maintained in the medium for 24 hours. After this 24 hours cell viability was tested using the 3-[4,5-dimethylthiazol-2-yl]-2,5-diphenyltetrazolium bromide (MTT, Sigma) assay. After color development (15 min at 37° C.), samples were measured at 570-620 nm on a microplate reader (BioTek ELX800, BioTek Instruments Inc., Vermont, USA). Mean values of at least three independent wells from three experiments were calculated, and cell survival expressed as percent […] signal compared with untreated control conditions.

[1] = oleanolic acid 4.44 mg/L alone, listed as OLA

With `C[C@@H]1O[C@@H](O[C@@H]2[C@@H](O)[C@H](OCCc3ccc(O)c(O)c3)O[C@H](CO)[C@H]2OC(=O)/C=C/c2ccc(O)c(O)c2)[C@H](O)[C@H](O)[C@H]1O` [verbascoside] the “BV2 NO reduction (vs. LPS + IFNγ)” value (BV2 microglia; verbascoside 3.12 mg/L alone) was 14.67% and the “BV2 NO reduction (vs. LPS + IFNγ)” value (BV2 microglia; verbascoside 3.12 mg/L alone, listed as VRB) was 14.67%.

For `CC1(C)CC[C@]2(C(=O)O)CC[C@]3(C)C(=CC[C@@H]4[C@@]5(C)CC[C@H](O)C(C)(C)[C@@H]5CC[C@]43C)[C@@H]2C1` [oleanolic acid], the “BV2 NO reduction (vs. LPS + IFNγ)” value (BV2 microglia; oleanolic acid 4.44 mg/L alone) was 17.33%, the “BV2 NO reduction (vs. LPS + IFNγ)” value (BV2 microglia; [1]) was 17.33% and the “NSC34 survival increase (vs. H2O2)” value (NSC34 motor neurons; oleanolic acid 4.44 mg/L alone) was 5.33%. The “NSC34 survival increase (vs. H2O2)” value (NSC34 motor neurons; [1]) was 5.33%.

With `OCCc1ccc(O)c(O)c1` [hydroxytyrosol, 2-(3,4-dihydroxyphenyl)ethanol] the “NSC34 survival increase (vs. H2O2)” value (NSC34 motor neurons; hydroxytyrosol 1.54 mg/L alone) was 21.67% and the “NSC34 survival increase (vs. H2O2)” value (NSC34 motor neurons; hydroxytyrosol 1.54 mg/L alone, listed as HST) was 21.67%.

`CC1(C)CC[C@]2(C(=O)O)CC[C@]3(C)C(=CC[C@@H]4[C@@]5(C)C[C@@H](O)[C@H](O)C(C)(C)[C@@H]5CC[C@]43C)[C@@H]2C1` [maslinic acid] was tested, and the “BV2 NO reduction (vs. LPS + IFNγ)” value (BV2 microglia; maslinic acid 13.20 mg/L alone) was 18.67% and the “BV2 NO reduction (vs. LPS + IFNγ)” value (BV2 microglia; maslinic acid 13.20 mg/L alone, listed as MSA) was 18.67%.
